Test results as given in patent publication US20260285888A1, “HETEROCYCLIC COMPOUND AND USE THEREOF” (OTSUKA PHARMACEUTICAL CO., LTD., priority 2023, published 2026).

Experiments:
[1] = Study for confirmation of conversion to brexpiprazole in a buffer (stability of the evaluation compounds); type: physicochemical; details: in buffer, average of duplicate; for Concentration of brexpiprazole formed: 60-minute reaction sample; for Concentration of evaluation compound decreased: decrease in 60-minute vs 0-minute reaction sample
How it was run: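 Compounds (final 1 μmol/L, from 100 μmol/L working solutions) incubated in buffer at 37° C. for 0 or 60 min, in duplicate, after 3 min pre-incubation of the reaction solution. Reactions stopped with acetonitrile/isopropanol (4:1) containing internal standards; compound and formed brexpiprazole quantified against 0.01–1 μmol/L calibration samples.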

in vitro = type: cell-based, human; details: human, differentiated hl-60 cells, 300 μmol/L, about 24 hours, PMA-differentiated HL-60 cells, LDH; no-treatment 0%, cell lysis buffer 100%; read-out: cytotoxicity (%) Evaluation compound results
How it was run: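 HL-60 cells differentiated ~72 h with 10 nM PMA, then exposed ~24 h to compound at 300 μmol/L final in RPMI with 2% FBS. LDH release in supernatant gave cytotoxicity % scaled between untreated (0%) and lysis-buffer (100%) groups; triplicate.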

O=c1ccc2ccc(OCCCC[N+]3(COP(=O)([O-])OC/C=C\CO)CCN(c4cccc5sccc45)CC3)cc2[nH]1 [EX 43, (Z)-(4-(benzo[b]thiophen-4-yl)-1-(4-((2-oxo-1,2-dihydroquinolin-7-yl)oxy)butyl)piperazin-1-ium-1-yl)methyl (4-hydroxybut-2-en-1-yl) phosphate]
Concentration of brexpiprazole formed [1]: 0 nM
Concentration of evaluation compound decreased [1]: 120 nM
cytotoxicity at 24 h, 300 µM (in vitro): -6%

CC(C)OCCOCCOCCOC(=O)OCOP(=O)([O-])OC[N+]1(CCCCOc2ccc3ccc(=O)[nH]c3c2)CCN(c2cccc3sccc23)CC1 [EX 137, (4-(benzo[b]thiophen-4-yl)-1-(4-((2-oxo-1,2-dihydroquinolin-7-yl)oxy)butyl)piperazin-1-ium-1-yl)methyl (14-methyl-3-oxo-2,4,7,10,13-pentaoxapentadecyl) phosphate]
Concentration of brexpiprazole formed [1]: 0 nM
Concentration of evaluation compound decreased [1]: 90 nM
cytotoxicity at 24 h, 300 µM (in vitro): -8%

CCOCCOCCOP(=O)([O-])OC[N+]1(CCCCOc2ccc3ccc(=O)[nH]c3c2)CCN(c2cccc3sccc23)CC1 [EX 98, (4-(benzo[b]thiophen-4-yl)-1-(4-((2-oxo-1,2-dihydroquinolin-7-yl)oxy)butyl)piperazin-1-ium-1-yl)methyl (2-(2-ethoxyethoxy)ethyl) phosphate]
Concentration of brexpiprazole formed [1]: 0 nM
Concentration of evaluation compound decreased [1]: -20 nM
cytotoxicity at 24 h, 300 µM (in vitro): -8%

CCOCCC(=O)OCOP(=O)([O-])OC[N+]1(CCCCOc2ccc3ccc(=O)[nH]c3c2)CCN(c2cccc3sccc23)CC1 [EX 29, (4-(benzo[b]thiophen-4-yl)-1-(4-((2-oxo-1,2-dihydroquinolin-7-yl)oxy)butyl)piperazin-1-ium-1-yl)methyl (((3-ethoxypropanoyl)oxy)methyl) phosphate]
Concentration of brexpiprazole formed [1]: 0 nM
Concentration of evaluation compound decreased [1]: -10 nM
cytotoxicity at 24 h, 300 µM (in vitro): -4%

CC(O)CCOP(=O)([O-])OC[N+]1(CCCCOc2ccc3ccc(=O)[nH]c3c2)CCN(c2cccc3sccc23)CC1 (stereo not drawn) [EX 40, (4-(benzo[b]thiophen-4-yl)-1-(4-((2-oxo-1,2-dihydroquinolin-7-yl)oxy)butyl)piperazin-1-ium-1-yl)methyl (3-hydroxybutyl) phosphate]
Concentration of brexpiprazole formed [1]: 0 nM
Concentration of evaluation compound decreased [1]: 60 nM
cytotoxicity at 24 h, 300 µM (in vitro): -5%

COCCOCCOC(=O)OCOP(=O)([O-])OC[N+]1(CCCCOc2ccc3ccc(=O)[nH]c3c2)CCN(c2cccc3sccc23)CC1 [EX 34, (4-(benzo[b]thiophen-4-yl)-1-(4-((2-oxo-1,2-dihydroquinolin-7-yl)oxy)butyl)piperazin-1-ium-1-yl)methyl (3-oxo-2,4,7,10-tetraoxaundecyl) phosphate]
Concentration of brexpiprazole formed [1]: 0 nM
Concentration of evaluation compound decreased [1]: 10 nM
cytotoxicity at 24 h, 300 µM (in vitro): -10%

CCOC(=O)[C@H](C)NP(=O)([O-])OC[N+]1(CCCCOc2ccc3ccc(=O)[nH]c3c2)CCN(c2cccc3sccc23)CC1 [EX 156, (4-(benzo[b]thiophen-4-yl)-1-(4-((2-oxo-1,2-dihydroquinolin-7-yl)oxy)butyl)piperazin-1-ium-1-yl)methyl (S)-(1-ethoxy-1-oxopropan-2-yl)phosphoramidate]
Concentration of brexpiprazole formed [1]: 0 nM
Concentration of evaluation compound decreased [1]: 170 nM
cytotoxicity at 24 h, 300 µM (in vitro): -9%

O=c1ccc2ccc(OCCCC[N+]3(COP(=O)([O-])OC/C=C/CO)CCN(c4cccc5sccc45)CC3)cc2[nH]1 [EX 42, (E)-(4-(benzo[b]thiophen-4-yl)-1-(4-((2-oxo-1,2-dihydroquinolin-7-yl)oxy)butyl)piperazin-1-ium-1-yl)methyl (4-hydroxybut-2-en-1-yl) phosphate]
Concentration of brexpiprazole formed [1]: 0 nM
Concentration of evaluation compound decreased [1]: 30 nM
cytotoxicity at 24 h, 300 µM (in vitro): 8%
